In patent US7754753B2, “Analgesic and anti-inflammatory compositions containing Cox-2-inhibitors” (Wyeth LLC, priority 2000, dated 2010):

Tested on: Male Swiss mice
Assay: acetic acid-induced writhing test (mouse writhing model)
Type: in vivo
Details: for oral A50 value (antinociceptive dose-response): +30 minutes before acetic acid, 95% confidence limits for ibuprofen 17.57-40.58
Description: A modification of the acetic acid-induced writhing test (as disclosed in Porreca, F., H. I. Mosberg, J. R. Omnaas, T. F. Burks and A. Cowan in Supraspinal and spinal potency of selective opioid agonists in the mouse writhing test (Journal of Pharmacology and Experimental Therapeutics 240: 890-894, 1987)) was conducted. The mouse writhing model as described is commonly used to investigate analgesic efficacy and potential synergism with combinations of drugs.
Male Swiss mice weighing 25-30 g were obtained from Ace Laboratories. They were each placed in individual rectangular observation boxes and allowed to acclimate for at least 1 hour. A placebo vehicle of 1% Tween 80/water was prepared.
Groups of 8-10 mice each received the test agent or placebo vehicle (in an amount of 0.25 ml/25 grams of body weight) orally via stomach tube. Those mice that received the placebo vehicle composed the control group. After 20, 30, 40 or 60 minutes, each mouse was injected parenterally with a 0.6% acetic acid solution (0.25 ml/25 g body weight).
Percent inhibition of writhing was expressed as: (Means writhes in control group)−(Writhes by individual mouse)×100/(Mean writhes in control group)
A preliminary study was conducted at +30 minutes to establish antinociceptive dose-response curves for ibuprofen (obtained from Sigma Chemical) and celecoxib (manufactured by G.D. Searle & Co. in 200 mg capsules and marketed under the trademark Celebrex®), respectively.
A second group of mice (n=8-10) received […] of ibuprofen followed immediately by the placebo vehicle. At either +20, +40 or +60 minutes following administration, the animals were injected i.p. with 0.6% acetic acid (0.25 ml/25 g body weight) and run in the writhing test.

[1] = dose 20 mg/kg oral, +30 minutes
[2] = dose 40 mg/kg oral, +30 minutes
[3] = dose 80 mg/kg oral, +30 minutes

Row | Compound | effect of celecoxib on ibuprofen analgesia in words (celecoxib 20 mg/kg given with ibuprofen 29 mg/kg, +20 to +60 min) | antinociceptive activity in words (celecoxib 20 mg/kg oral alone) | Mean % inhibition + s.e.m. (writhing) [1] | Mean % inhibition + s.e.m. (writhing) [2] | Mean % inhibition + s.e.m. (writhing) [3] | oral A50 value (antinociceptive dose-response) (oral) | Mean % inhibition + s.e.m. (writhing) (time 20 min, ibuprofen 29 mg/kg followed immediately by celecoxib 20 mg/kg or placebo vehicle, oral) | Mean % inhibition + s.e.m. (writhing) (time 40 min, ibuprofen 29 mg/kg followed immediately by celecoxib 20 mg/kg or placebo vehicle, oral) | Mean % inhibition + s.e.m. (writhing) (time 60 min, ibuprofen 29 mg/kg followed immediately by celecoxib 20 mg/kg or placebo vehicle, oral)
1 | Cc1ccc(-c2cc(C(F)(F)F)nn2-c2ccc(S(N)(=O)=O)cc2)cc1 [Celecoxib, 4-[5-(4-methylphenyl)-3-(trifluoromethyl)-1H-pyrazol-1-yl]benzenesulfonamide] | potentiated the ibuprofen through faster onset and duration of action | essentially inactive | 7.5 ± 3.38% | 21.7 ± 4.17% | 28.3 ± 8.34% | > 80 mg/kg | – | – | –
2 | CC(C)Cc1ccc(C(C)C(=O)O)cc1 (stereo not shown) [Ibuprofen, ibuprofen] | – | – | 38.7 ± 11.2% | 59.4 ± 9.58% | 74.0 ± 4.68% | 29.07 mg/kg | 36.4 ± 3.2% | 14.1 ± 6.2% | 27.3 ± 8.2%
